# Columns and labels:
# [1] = Three-treatment crossover pharmacokinetics of IN nalmefene, three dosing regimens (Example 13); details: human, plasma, […]
# [2] = Example 14 safety: adverse events; details: Part 2
compound,measurement,setting,value
"C=C1CC[C@@]2(O)[C@H]3Cc4ccc(O)c5c4[C@@]2(CCN3CC2CC2)[C@H]1O5 [Nalmefene, 17-cyclopropylmethyl-4,5α-epoxy-6-methylenemorphinan-3,14-diol]",concentration at […],"[1]; other: intranasal (IN spray), 6 mg, Mean, Time 0.166, T3: 6 mg nalmefene HCl IN, two 0.1 mL sprays in one nostril",14.1 ng/mL
same,concentration at […],"[1]; other: intranasal (IN spray), 6 mg, Mean, Time 0.250, T3: 6 mg nalmefene HCl IN, two 0.1 mL sprays in one nostril",16.9 ng/mL
same,concentration at […],"[1]; other: intranasal (IN spray), 6 mg, Mean, Time 0.333, T3: 6 mg nalmefene HCl IN, two 0.1 mL sprays in one nostril",14.6 ng/mL
same,concentration at […],"[1]; other: intranasal (IN spray), 6 mg, Mean, Time 0.750, T3: 6 mg nalmefene HCl IN, two 0.1 mL sprays in one nostril",9.92 ng/mL
same,concentration at 1 h,"[1]; other: intranasal (IN spray), 6 mg, Mean, Time 1.00, T3: 6 mg nalmefene HCl IN, two 0.1 mL sprays in one nostril",9.59 ng/mL
same,concentration at 2 h,"[1]; other: intranasal (IN spray), 6 mg, Mean, Time 2.00, T3: 6 mg nalmefene HCl IN, two 0.1 mL sprays in one nostril",8.86 ng/mL
same,concentration at 3 h,"[1]; other: intranasal (IN spray), 6 mg, Mean, Time 3.00, T3: 6 mg nalmefene HCl IN, two 0.1 mL sprays in one nostril",6.9 ng/mL
same,concentration at 4 h,"[1]; other: intranasal (IN spray), 6 mg, Mean, Time 4.00, T3: 6 mg nalmefene HCl IN, two 0.1 mL sprays in one nostril",5.37 ng/mL
same,concentration at 6 h,"[1]; other: intranasal (IN spray), 6 mg, Mean, Time 6.00, T3: 6 mg nalmefene HCl IN, two 0.1 mL sprays in one nostril",3.69 ng/mL
same,concentration at 8 h,"[1]; other: intranasal (IN spray), 6 mg, Mean, Time 8.00, T3: 6 mg nalmefene HCl IN, two 0.1 mL sprays in one nostril",2.69 ng/mL
same,concentration at 12 h,"[1]; other: intranasal (IN spray), 6 mg, Mean, Time 12.0, T3: 6 mg nalmefene HCl IN, two 0.1 mL sprays in one nostril",1.93 ng/mL
same,concentration at 18 h,"[1]; other: intranasal (IN spray), 6 mg, Mean, Time 18.0, T3: 6 mg nalmefene HCl IN, two 0.1 mL sprays in one nostril",1.11 ng/mL
same,concentration at 24 h,"[1]; other: intranasal (IN spray), 6 mg, Mean, Time 24.0, T3: 6 mg nalmefene HCl IN, two 0.1 mL sprays in one nostril",0.792 ng/mL
same,concentration at 48 h,"[1]; other: intranasal (IN spray), 6 mg, Mean, Time 48.0, T3: 6 mg nalmefene HCl IN, two 0.1 mL sprays in one nostril",0.182 ng/mL
same,concentration at 0 h,"[1]; other: intranasal (IN spray), 6 mg, Median, Time 0.00, T3: 6 mg nalmefene HCl IN, two 0.1 mL sprays in one nostril",0 ng/mL
same,concentration at 2.5 min,"[1]; other: intranasal (IN spray), 6 mg, Median, Time 0.0416, T3: 6 mg nalmefene HCl IN, two 0.1 mL sprays in one nostril",0.746 ng/mL
same,concentration at […],"[1]; other: intranasal (IN spray), 6 mg, Median, Time 0.0833, T3: 6 mg nalmefene HCl IN, two 0.1 mL sprays in one nostril",2.58 ng/mL
same,concentration at […],"[1]; other: intranasal (IN spray), 6 mg, Median, Time 0.125, T3: 6 mg nalmefene HCl IN, two 0.1 mL sprays in one nostril",4.96 ng/mL
same,concentration at […],"[1]; other: intranasal (IN spray), 6 mg, Median, Time 0.166, T3: 6 mg nalmefene HCl IN, two 0.1 mL sprays in one nostril",8.55 ng/mL
same,concentration at […],"[1]; other: intranasal (IN spray), 6 mg, Median, Time 0.250, T3: 6 mg nalmefene HCl IN, two 0.1 mL sprays in one nostril",12.8 ng/mL
same,concentration at […],"[1]; other: intranasal (IN spray), 6 mg, Median, Time 0.750, T3: 6 mg nalmefene HCl IN, two 0.1 mL sprays in one nostril",9.69 ng/mL
same,concentration at 1 h,"[1]; other: intranasal (IN spray), 6 mg, Median, Time 1.00, T3: 6 mg nalmefene HCl IN, two 0.1 mL sprays in one nostril",8.88 ng/mL
same,concentration at 2 h,"[1]; other: intranasal (IN spray), 6 mg, Median, Time 2.00, T3: 6 mg nalmefene HCl IN, two 0.1 mL sprays in one nostril",8.6 ng/mL
same,concentration at 3 h,"[1]; other: intranasal (IN spray), 6 mg, Median, Time 3.00, T3: 6 mg nalmefene HCl IN, two 0.1 mL sprays in one nostril",6.35 ng/mL
same,concentration at 4 h,"[1]; other: intranasal (IN spray), 6 mg, Median, Time 4.00, T3: 6 mg nalmefene HCl IN, two 0.1 mL sprays in one nostril",4.89 ng/mL
same,concentration at 6 h,"[1]; other: intranasal (IN spray), 6 mg, Median, Time 6.00, T3: 6 mg nalmefene HCl IN, two 0.1 mL sprays in one nostril",3.51 ng/mL
same,concentration at 8 h,"[1]; other: intranasal (IN spray), 6 mg, Median, Time 8.00, T3: 6 mg nalmefene HCl IN, two 0.1 mL sprays in one nostril",2.46 ng/mL
same,concentration at 12 h,"[1]; other: intranasal (IN spray), 6 mg, Median, Time 12.0, T3: 6 mg nalmefene HCl IN, two 0.1 mL sprays in one nostril",1.82 ng/mL
same,concentration at 18 h,"[1]; other: intranasal (IN spray), 6 mg, Median, Time 18.0, T3: 6 mg nalmefene HCl IN, two 0.1 mL sprays in one nostril",1.12 ng/mL
same,concentration at 24 h,"[1]; other: intranasal (IN spray), 6 mg, Median, Time 24.0, T3: 6 mg nalmefene HCl IN, two 0.1 mL sprays in one nostril",0.729 ng/mL
same,concentration at 48 h,"[1]; other: intranasal (IN spray), 6 mg, Median, Time 48.0, T3: 6 mg nalmefene HCl IN, two 0.1 mL sprays in one nostril",0.176 ng/mL
same,concentration at 0 h,"[1]; other: intranasal (IN) spray, 3 mg, Max, T1 (3 mg IN, one spray in one nostril), time 0.00",0 ng/mL
same,concentration at 2.5 min,"[1]; other: intranasal (IN) spray, 3 mg, Max, T1 (3 mg IN, one spray in one nostril), time 0.0416",0.766 ng/mL
same,concentration at […],"[1]; other: intranasal (IN) spray, 3 mg, Max, T1 (3 mg IN, one spray in one nostril), time 0.125",16.9 ng/mL
same,concentration at […],"[1]; other: intranasal (IN) spray, 3 mg, Max, T1 (3 mg IN, one spray in one nostril), time 0.166",20.4 ng/mL
same,concentration at […],"[1]; other: intranasal (IN) spray, 3 mg, Max, T1 (3 mg IN, one spray in one nostril), time 0.250",22.1 ng/mL
same,concentration at […],"[1]; other: intranasal (IN) spray, 3 mg, Max, T1 (3 mg IN, one spray in one nostril), time 0.333",20.2 ng/mL
same,concentration at 1 h,"[1]; other: intranasal (IN) spray, 3 mg, Max, T1 (3 mg IN, one spray in one nostril), time 1.00",9.54 ng/mL
same,concentration at 2 h,"[1]; other: intranasal (IN) spray, 3 mg, Max, T1 (3 mg IN, one spray in one nostril), time 2.00",7.64 ng/mL
same,concentration at 3 h,"[1]; other: intranasal (IN) spray, 3 mg, Mean, T1 (3 mg IN, one spray in one nostril), time 3.00",3.7 ng/mL
same,concentration at 4 h,"[1]; other: intranasal (IN) spray, 3 mg, Mean, T1 (3 mg IN, one spray in one nostril), time 4.00",2.99 ng/mL
same,concentration at 6 h,"[1]; other: intranasal (IN) spray, 3 mg, Mean, T1 (3 mg IN, one spray in one nostril), time 6.00",2.06 ng/mL
same,concentration at 8 h,"[1]; other: intranasal (IN) spray, 3 mg, Mean, T1 (3 mg IN, one spray in one nostril), time 8.00",1.44 ng/mL
same,concentration at 12 h,"[1]; other: intranasal (IN) spray, 3 mg, Mean, T1 (3 mg IN, one spray in one nostril), time 12.0",0.992 ng/mL
same,concentration at 18 h,"[1]; other: intranasal (IN) spray, 3 mg, Mean, T1 (3 mg IN, one spray in one nostril), time 18.0",0.591 ng/mL
same,concentration at 24 h,"[1]; other: intranasal (IN) spray, 3 mg, Mean, T1 (3 mg IN, one spray in one nostril), time 24.0",0.412 ng/mL
same,concentration at 48 h,"[1]; other: intranasal (IN) spray, 3 mg, Mean, T1 (3 mg IN, one spray in one nostril), time 48.0",0.0942 ng/mL
same,concentration at 2.5 min,"[1]; other: intranasal (IN) spray, 3 mg, Median, T1 (3 mg IN, one spray in one nostril), time 0.0416",0.362 ng/mL
same,concentration at […],"[1]; other: intranasal (IN) spray, 3 mg, Median, T1 (3 mg IN, one spray in one nostril), time 0.0833",1.29 ng/mL
same,concentration at […],"[1]; other: intranasal (IN) spray, 3 mg, Median, T1 (3 mg IN, one spray in one nostril), time 0.125",3.65 ng/mL
same,concentration at […],"[1]; other: intranasal (IN) spray, 3 mg, Median, T1 (3 mg IN, one spray in one nostril), time 0.166",6.28 ng/mL
same,concentration at […],"[1]; other: intranasal (IN) spray, 3 mg, Median, T1 (3 mg IN, one spray in one nostril), time 0.250",8.04 ng/mL
same,concentration at […],"[1]; other: intranasal (IN) spray, 3 mg, Median, T1 (3 mg IN, one spray in one nostril), time 0.333",8.07 ng/mL
same,concentration at […],"[1]; other: intranasal (IN) spray, 3 mg, Median, T1 (3 mg IN, one spray in one nostril), time 0.750",5.85 ng/mL
same,concentration at 2 h,"[1]; other: intranasal (IN) spray, 3 mg, Median, T1 (3 mg IN, one spray in one nostril), time 2.00",4.62 ng/mL
same,concentration at 3 h,"[1]; other: intranasal (IN) spray, 3 mg, Min, T1 (3 mg IN, one spray in one nostril), time 3.00",2.16 ng/mL
same,concentration at 4 h,"[1]; other: intranasal (IN) spray, 3 mg, Min, T1 (3 mg IN, one spray in one nostril), time 4.00",1.97 ng/mL
same,concentration at 0 h,"[1]; other: intranasal, 3 mg, Mean, T1 (3 mg IN, one spray in one nostril), time 0.00",0 ng/mL
same,concentration at 2.5 min,"[1]; other: intranasal, 3 mg, Mean, T1 (3 mg IN, one spray in one nostril), time 0.0416",0.353 ng/mL
same,concentration at […],"[1]; other: intranasal, 3 mg, Mean, T1 (3 mg IN, one spray in one nostril), time 0.0833",2.38 ng/mL
same,concentration at […],"[1]; other: intranasal, 3 mg, Mean, T1 (3 mg IN, one spray in one nostril), time 0.125",5.1 ng/mL
same,concentration at […],"[1]; other: intranasal, 3 mg, Mean, T1 (3 mg IN, one spray in one nostril), time 0.166",7.78 ng/mL
same,concentration at […],"[1]; other: intranasal, 3 mg, Mean, T1 (3 mg IN, one spray in one nostril), time 0.250",9.17 ng/mL
same,concentration at […],"[1]; other: intranasal, 3 mg, Mean, T1 (3 mg IN, one spray in one nostril), time 0.333",8.79 ng/mL
same,concentration at […],"[1]; other: intranasal, 3 mg, Mean, T1 (3 mg IN, one spray in one nostril), time 0.750",5.99 ng/mL
same,concentration at 1 h,"[1]; other: intranasal, 3 mg, Mean, T1 (3 mg IN, one spray in one nostril), time 1.00",5.47 ng/mL
same,concentration at 2 h,"[1]; other: intranasal, 3 mg, Mean, T1 (3 mg IN, one spray in one nostril), time 2.00",4.99 ng/mL
same,concentration at 0 h,"[1]; other: intranasal, 3 mg, Median, T1 (3 mg IN, one spray in one nostril), time 0.00",0 ng/mL
same,concentration at 1 h,"[1]; other: intranasal, 3 mg, Median, T1 (3 mg IN, one spray in one nostril), time 1.00",5.11 ng/mL
same,concentration at 0 h,"[1]; other: intranasal, 3 mg, Min, T1 (3 mg IN, one spray in one nostril), time 0.00",0 ng/mL
same,concentration at 2.5 min,"[1]; other: intranasal, 3 mg, Min, T1 (3 mg IN, one spray in one nostril), time 0.0416",0 ng/mL
same,concentration at […],"[1]; other: intranasal, 3 mg, Min, T1 (3 mg IN, one spray in one nostril), time 0.0833",0.319 ng/mL
same,concentration at […],"[1]; other: intranasal, 3 mg, Min, T1 (3 mg IN, one spray in one nostril), time 0.125",0.642 ng/mL
same,concentration at […],"[1]; other: intranasal, 3 mg, Min, T1 (3 mg IN, one spray in one nostril), time 0.166",1.09 ng/mL
same,concentration at […],"[1]; other: intranasal, 3 mg, Min, T1 (3 mg IN, one spray in one nostril), time 0.250",1.88 ng/mL
same,concentration at […],"[1]; other: intranasal, 3 mg, Min, T1 (3 mg IN, one spray in one nostril), time 0.333",1.97 ng/mL
same,concentration at […],"[1]; other: intranasal, 3 mg, Min, T1 (3 mg IN, one spray in one nostril), time 0.750",2.52 ng/mL
same,concentration at 2 h,"[1]; other: intranasal, 3 mg, Min, T1 (3 mg IN, one spray in one nostril), time 2.00",3.28 ng/mL
same,concentration at 0 h,"[1]; other: intranasal, 6 mg, individual subject, Time 0.00, T3: 6 mg nalmefene HCl IN, two 0.1 mL sprays in one nostril",0 ng/mL
same,Number of TEAEs,[2],172
same,Subjects reporting Grade 1 severity TEAEs,[2],68.9%
same,Subjects reporting Grade 2 severity TEAEs,[2],23.0%
same,Subjects reporting TEAEs,[2],91.8%
same,Subjects reporting headache,[2],59.0%
same,Subjects who discontinued the study drug due to an AE,[2],6.6%

# Source: patent US12290596B2, “Compositions and methods for the treatment of opioid overdose” (priority 2021, dated 2025)
